These results are taken from US11213508B2, “Compositions comprising urolithins and uses thereof for the stimulation of insulin secretion” (Centre National de la Recherche Scientifique (CNRS), priority 2013, dated 2022).

Assay [1] has as its system INS-1 insulin-secreting β-cells. Nature of the assay: Glucose (8.3 mmol·L^−1)-stimulated insulin secretion in INS-1 cells (HTRF insulin assay). Particulars: 8.3 mmol·L^−1 glucose; for activity at 2 µM / activity at 20 µM: Rattus norvegicus, INS1, 1 h, read-out: % control response (glucose-stimulated insulin secretion); for activity at 2 µM / activity at 20 µM / % control response (glucose-stimulated insulin secretion): control = glucose alone. It counts as cell-based. The procedure: Cells were seeded in 24-well plates (4×10^5 cells per well) and were used for experiments after 5 days of culture.
(§1) Cells were incubated for 1 h (5% CO2, 37° C.) in KRB medium containing 8.3 mmol·L^−1 glucose (glucose-stimulated secretion) in the presence or absence of the compounds tested. At the end of the 1 h incubation period, the medium was sampled and stored at −20° C. until the insulin assay. Insulin concentration in cell supernatants was determined using the homogeneous time resolved fluorescence technology (HTRF), according to the manufacturer's instructions (HTRF insulin assay kit, Cisbio International, Bagnols-sur-Ceze, France). Briefly, two anti-insulin antibodies were used; one labelled with Eu^3+-Cryptate and one labelled with XL665 recognizing distinct epitopes. When these two fluorophores bind to insulin molecules, the two antibodies come into close proximity, allowing fluorescence resonance energy transfer (FRET) to occur between the Eu^3+-Cryptate and the XL665. This FRET increases proportionally with the insulin concentrations. All the experiments were performed at least in quadruplicate.
For the determination of insulin secretion, cells were incubated for 1 h (5% CO2, 37° C.) in KRB medium containing either 1.4 mmol·L^−1 glucose (low-glucose) or 8.3 mmol·L^−1 glucose (glucose-stimulated secretion) in the presence or absence of the compounds tested. At the end of the 1 h incubation period, mediums were sampled and stored at −20° C. until the insulin assay.
For orientation: In TR-FRET formats the signal depends on donor and acceptor labels being close together.

Assay [2] shares this test system. Conditions: Youl et al., 2010; cited from earlier work.
For assay [3] the test system is unchanged. Kind of assay: Glibenclamide-stimulated insulin secretion in INS-1 cells. Particulars: glibenclamide 0.01 μmol·L^−1. It counts as cell-based. The procedure: The insulin-secreting cell line INS-1 (a gift from Professor C. B. Wollheim) was cultured in RPMI-1640, supplemented with 10% fetal calf serum (FCS), 100 U·mL^−1 penicillin, 100 μg·mL^−1 streptomycin, 2 mmol·L^−1 L-glutamine, 10 mmol·L^−1 HEPES, 1 mmol·L^−1 sodium pyruvate, and […] 2-mercaptoethanol, as previously described by Youl et al. (2010). Cells were seeded in 24-well plates (4×10^5 cells per well) and were used for experiments after 5 days of culture.
as §1, with “Before the treatment, RPMI medium was removed and the cells were washed twice with HEPES-balanced Krebs-Ringer bicarbonate buffer (KRB) containing (in mmol·L^−1): 123 NaCl, 5.4 KCl, 1.3 KH2PO4, 2.7 MgSO4, 2.9 CaCl2, 5 NaHCO3 and 20 HEPES, pH 7.5, with 2 g·L^−1 bovine serum albumin (KRB/BSA). Cells” for “Cells”
Material and methods were the same as described in example 1. For the determination of insulin secretion, cells were incubated for 1 h (5% CO2, 37° C.) in KRB medium containing 1.4 mmol·L^−1 glucose (low-glucose condition) and 0.01 μmol·L^−1 glibenclamide (glibenclamide-stimulated secretion), in the presence or absence of urolithins. At the end of the 1 h incubation period, the medium was sampled and stored at −20° C. until the insulin assay. Insulin concentration in cell supernatants was determined as described in Example 1.

Where “and” joins values, the source holds several entries; their conditions need not be identical. Equal values may be shown once.

With `O=C(O)Cc1ccc(O)c(O)c1` [3,4-dihydroxyphenylacetic acid], the activity at 2 µM in assay [1] (compound 2 μM) stood at 105%. The activity at 20 µM in assay [1] (compound 20 μM) was found to be 84%. The corresponding values for `O=C(O)CCc1cccc(O)c1` [3-(3′-hydroxyphenyl)propionic acid] are 98% and 103%. For `O=C(O)C(O)Cc1ccc(O)cc1` (stereo not drawn) [3-(4′-hydroxyphenyl)lactic acid] the same measures were 97% and 79%. As for `COc1cc(C(=O)O)cc(O)c1O` [3-O-Methylgallic acid], in assay [1] (compound 2 μM), the activity at 2 µM turned out to be 93%. The activity at 20 µM in assay [1] (compound 20 μM) was found to be 105%.

Turning to `O=C(O)Cc1cccc(O)c1` [3-hydroxyphenylacetic acid], the activity at 2 µM in assay [1] (compound 2 μM) stood at 98%. The activity at 20 µM in assay [1] (compound 20 μM) was determined as 104%.

With `COc1c(O)cc(C(=O)O)cc1O` [4-O-Methylgallic acid], the activity at 2 µM in assay [1] (compound 2 μM) amounted to 104%. Also, the activity at 20 µM in assay [1] (compound 20 μM) was found to be 86%. The corresponding values for `O=C(O)c1ccc(O)cc1` [4-hydroxybenzoic acid] are 96% and 98%. For `O=C(O)CNC(=O)c1ccc(O)cc1` [4′-hydroxyhippuric acid], the “% control response (glucose-stimulated insulin secretion)” value (“% control response” for short) in assay [1] (compound 2 μM) stood at 98.00%; in assay [1] (compound 20 μM) it was 111.00%. `O=C(O)Cc1ccc(O)cc1` [4′-hydroxyphenylacetic acid]: the “% control response” value in assay [1] (compound 2 μM) is 102.00% and 107.00%; in assay [1] (compound 20 μM), 74.00% and 81.00%. In the case of `O=C(O)C(O)c1ccc(O)cc1` (stereo not drawn) [4′hydroxymandelic acid], the “% control response” value is 103.00% in assay [1] (compound 2 μM) and 86.00% in assay [1] (compound 20 μM). `O=C(O)/C=C/c1ccc(O)c(O)c1` [Caffeic acid]: the activity at 2 µM in assay [1] (compound 2 μM) worked out at 104%. Also, the activity at 20 µM in assay [1] (compound 20 μM) turned out to be 105%. The corresponding values for `O=C(O)CCc1ccc(O)c(O)c1` [Dihydrocaffeic acid] are 110% and 83%.

On to `COc1cc(CCC(=O)O)ccc1O` [Dihydroferulic acid], for which the activity at 2 µM in assay [1] (compound 2 μM) was found to be 106%. The activity at 20 µM in assay [1] (compound 20 μM) amounted to 103%. As for `O=c1oc2c(O)c(O)cc3c(=O)oc4c(O)c(O)cc1c4c23` [Ellagic acid, reference compound], in assay [1] (compound 2 μM), the activity at 2 µM was 93.4%. Besides, in assay [1] (compound 20 μM), the activity at 20 µM is 101%. For the same molecule, the “ability to amplify glucose-stimulated insulin secretion” value in assay [1] (blind screening, 2 and 20 μM) is “not active”. Regarding `COc1cc(/C=C/C(=O)O)ccc1O` [Ferulic acid], in assay [1] (compound 2 μM), the activity at 2 µM came out at 109%. Further, the activity at 20 µM in assay [1] (compound 20 μM) worked out at 115%.

In the case of `COc1cc(/C=C/C(=O)NCC(=O)O)ccc1O` [Feruloylglycine], the activity at 2 µM in assay [1] (compound 2 μM) was found to be 102%. Besides, the activity at 20 µM in assay [1] (compound 20 μM) was 102%. On to `COc1cc(CC(=O)O)ccc1O` [Homovanillic acid], for which the activity at 2 µM in assay [1] (compound 2 μM) was 93%. In addition, the activity at 20 µM in assay [1] (compound 20 μM) was 83%. As to `COc1ccc(/C=C/C(=O)NCC(=O)O)cc1O` [Isoferuloylglycine], the activity at 2 µM in assay [1] (compound 2 μM) turned out to be 80%. For the same molecule, in assay [1] (compound 20 μM), the activity at 20 µM was 82%. Turning to `O=C(O)[C@H]1O[C@@H](Oc2c(-c3ccc(O)cc3)oc3cc(O)cc(O)c3c2=O)[C@H](O)[C@@H](O)[C@@H]1O` [Kaempferol-3 -glucuronide], the “% control response” value in assay [1] (compound 2 μM) amounted to 111.00%; in assay [1] (compound 20 μM), 104.00%. For the molecule `CC(=O)N[C@@H](CS)C(=O)O` [N-acetyl cysteine], in assay [2], the “prevention of H2O2-induced insulin secretion impairment” value (“prevention” for short) is reported as “not”. Turning to `Oc1cc(O)cc(O)c1` [Phloroglucinol], in assay [1] (compound 2 μM), the activity at 2 µM is 100%. Further, the activity at 20 µM in assay [1] (compound 20 μM) turned out to be 105%. Consider `O=C(O)c1ccc(O)c(O)c1` [Protocatechuic acid], for which the activity at 2 µM in assay [1] (compound 2 μM) was found to be 108%. In assay [1] (compound 20 μM), the activity at 20 µM came out at 92%. The corresponding values for `Oc1ccccc1O` [Pyrocatechol] are 87% and 96%. For the molecule `Oc1cccc(O)c1O` [Pyrogallol], the activity at 2 µM in assay [1] (compound 2 μM) worked out at 93%. For the same molecule, in assay [1] (compound 20 μM), the activity at 20 µM came out at 98%. Regarding `O=c1c(O)c(-c2ccc(O)c(O)c2)oc2cc(O)cc(O)c12` [Quercetin, reference compound], in assay [1] (compound 2 μM), the activity at 2 µM amounted to 93.8%. Further, the activity at 20 µM in assay [1] (compound 20 μM) turned out to be 237%. Also, the “prevention” value in assay [2] is listed as “able to prevent H2O2-induced insulin secretion impairment”. As to `O=C(O)[C@H]1O[C@@H](Oc2c(-c3ccc(O)c(O)c3)oc3cc(O)cc(O)c3c2=O)[C@H](O)[C@@H](O)[C@@H]1O` [Quercetin-3 -glucuronide], the entries for the “% control response” value in assay [1] (compound 2 μM) and in assay [1] (compound 20 μM) were 89.00% and 103.00%, respectively. As to `OCCc1ccc(O)cc1` [Tyrosol], the activity at 2 µM in assay [1] (compound 2 μM) is 86%. Further, the activity at 20 µM in assay [1] (compound 20 μM) came to 89%. Consider `COc1ccc(Cl)cc1C(=O)NCCc1ccc(S(=O)(=O)NC(=O)NC2CCCCC2)cc1` [glibenclamide, reference compound], for which the “increase of secretion as compared to low-glucose condition” value in assay [3] is given as 4/6. In the case of `Oc1ccc(C=Cc2cc(O)cc(O)c2)cc1` [resveratrol], the “prevention” value in assay [2] is reported as “not”.
